{
  "source": "patent US20010021705A1",
  "about": "“Disodium alendronate formulations” (MERCK & CO., Inc., priority 1995, published 2001)",
  "conditions": "for aqueous pH: concentration not stated (summary)",
  "note": "Where a name gives a salt, the structure may show the parent alone. Read-outs that look alike come from different tables or passages of the source.",
  "data": [
    {"smiles": "NCCCC(O)(P(=O)(O)O)P(=O)(O)O", "note": "[disodium salt, 4-Amino-1-Hydroxy-Butylidene-1,1-Bisphosphonic Acid Disodium Salt Monohydrate]", "values": [
      {"measurement": "solution pH", "setting": "at 50 mg/ml", "result": 8.7},
      {"measurement": "aqueous pH", "setting": "Disodium Salt Monohydrate", "result": "about 8.7"}
    ]},
    {"smiles": "NCCCC(O)(P(=O)(O)O)P(=O)(O)O", "note": "[free acid, 4-amino-1-hydroxybutylidene-1,1-bisphosphonic acid]", "values": [
      {"measurement": "solution pH", "setting": "at 8 mg/ml", "result": 2.2},
      {"measurement": "aqueous pH", "result": "about 2.2"}
    ]}
  ]
}
